Assay results from ChEMBL document CHEMBL6078672, “Chemical probes for the identification of the molecular targets of honokiol” (Eur J Med Chem, 2025).

Legend:
MDA-MB-231 [1] = assay: Cytotoxicity against human MDA-MB-231 cells assessed as inhibition of cell growth incubated for 48 hrs by MTT assay; assay type: functional, cell-based; conditions: MDA-MB-231, 48 h
SK-OV-3 = assay: Cytotoxicity against human SK-OV-3 cells assessed as inhibition of cell growth incubated for 48 hrs by MTT assay; assay type: functional, cell-based; conditions: SK-OV-3, 48 h
OVCAR-3 = assay: Cytotoxicity against human OVCAR-3 cells assessed as inhibition of cell growth incubated for 48 hrs by MTT assay; assay type: functional, cell-based; conditions: OVCAR-3, 48 h
[2] = molecular target: T1, Protein LYRIC (Homo sapiens) (UniProt Q86UE4); assay: Binding affinity to Lyric in human MDA-MB-231 cells assessed as change in melting temperature at 10 uM incubated for 1 hr by cellular thermal shift assay; assay type: cell-based
T1 sequence (whole entry): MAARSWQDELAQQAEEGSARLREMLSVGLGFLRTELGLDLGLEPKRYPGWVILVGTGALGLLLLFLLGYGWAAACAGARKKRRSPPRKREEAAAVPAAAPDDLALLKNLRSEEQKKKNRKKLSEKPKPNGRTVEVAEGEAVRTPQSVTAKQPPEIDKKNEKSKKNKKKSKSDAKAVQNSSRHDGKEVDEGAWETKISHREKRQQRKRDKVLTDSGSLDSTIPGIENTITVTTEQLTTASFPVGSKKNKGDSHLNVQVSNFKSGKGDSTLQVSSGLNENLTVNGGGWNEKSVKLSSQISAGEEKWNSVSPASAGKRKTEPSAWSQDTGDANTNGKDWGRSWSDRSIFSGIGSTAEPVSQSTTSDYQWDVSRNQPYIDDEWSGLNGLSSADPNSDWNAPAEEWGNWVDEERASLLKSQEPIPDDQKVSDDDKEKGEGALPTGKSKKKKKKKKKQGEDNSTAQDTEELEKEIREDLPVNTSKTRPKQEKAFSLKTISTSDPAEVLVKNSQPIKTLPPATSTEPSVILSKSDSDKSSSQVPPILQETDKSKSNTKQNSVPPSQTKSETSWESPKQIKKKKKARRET

[3] = molecular target: T2, Dipeptidyl peptidase 3 (Homo sapiens) (UniProt Q9NY33); assay: Binding affinity to DPP3 in human MDA-MB-231 cells assessed as change in melting temperature at 10 uM incubated for 1 hr by cellular thermal shift assay; assay type: cell-based
T2 sequence (whole entry): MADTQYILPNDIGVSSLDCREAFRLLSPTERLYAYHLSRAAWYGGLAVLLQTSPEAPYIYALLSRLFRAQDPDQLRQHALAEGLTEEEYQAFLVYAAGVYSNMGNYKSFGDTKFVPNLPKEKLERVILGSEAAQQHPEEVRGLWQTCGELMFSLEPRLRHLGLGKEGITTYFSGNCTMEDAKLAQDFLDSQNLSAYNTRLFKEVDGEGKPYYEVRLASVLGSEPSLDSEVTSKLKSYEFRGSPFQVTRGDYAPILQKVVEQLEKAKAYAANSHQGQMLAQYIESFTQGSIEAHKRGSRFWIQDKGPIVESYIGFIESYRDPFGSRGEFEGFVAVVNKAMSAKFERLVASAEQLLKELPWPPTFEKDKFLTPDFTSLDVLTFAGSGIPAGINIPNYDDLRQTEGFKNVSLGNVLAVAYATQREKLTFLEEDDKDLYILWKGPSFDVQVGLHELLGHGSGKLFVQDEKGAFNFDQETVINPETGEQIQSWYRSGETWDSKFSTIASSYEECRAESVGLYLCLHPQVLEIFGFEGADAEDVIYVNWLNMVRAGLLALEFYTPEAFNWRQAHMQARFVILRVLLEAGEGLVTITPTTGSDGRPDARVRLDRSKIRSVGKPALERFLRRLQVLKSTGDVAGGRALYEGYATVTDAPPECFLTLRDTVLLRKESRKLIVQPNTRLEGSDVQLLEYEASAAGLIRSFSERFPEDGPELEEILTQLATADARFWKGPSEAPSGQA

[4] = molecular target: T3, 6-phosphogluconate dehydrogenase, decarboxylating (Homo sapiens) (UniProt P52209); assay: Binding affinity to PGD in human MDA-MB-231 cells assessed as change in melting temperature at 10 uM incubated for 1 hr by cellular thermal shift assay; assay type: cell-based
T3 sequence (whole entry): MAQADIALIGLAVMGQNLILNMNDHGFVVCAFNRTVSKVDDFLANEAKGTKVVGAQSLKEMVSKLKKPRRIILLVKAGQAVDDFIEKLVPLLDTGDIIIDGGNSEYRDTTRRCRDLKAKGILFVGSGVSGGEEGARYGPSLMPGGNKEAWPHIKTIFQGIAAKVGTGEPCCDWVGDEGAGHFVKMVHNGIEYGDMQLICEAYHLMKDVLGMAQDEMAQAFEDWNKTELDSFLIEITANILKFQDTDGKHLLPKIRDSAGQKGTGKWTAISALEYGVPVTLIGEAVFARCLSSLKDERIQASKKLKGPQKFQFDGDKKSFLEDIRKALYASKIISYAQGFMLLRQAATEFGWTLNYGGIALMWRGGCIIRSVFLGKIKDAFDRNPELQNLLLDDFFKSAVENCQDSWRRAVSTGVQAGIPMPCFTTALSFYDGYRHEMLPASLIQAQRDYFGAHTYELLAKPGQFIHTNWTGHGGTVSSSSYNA

MDA-MB-231 [5] = assay: Binding affinity to CAPN-1 in human MDA-MB-231 cells assessed as change in melting temperature at 10 uM incubated for 1 hr by cellular thermal shift assay; assay type: cell-based
[6] = Drug localization in human MDA-MB-231 cells assessed as increase in fluorescent band intensity incubated for 30 mins in presence of UV irradiation by coomassie brilliant blue staining based SDS-PAGE analysis; assay type: ADME, cell-based; conditions: mda-mb-231, 0.5 h
[7] = Drug localization in human MDA-MB-231 cells assessed as increase in fluorescent band intensity at 1 to 10 uM incubated for 30 mins in presence of UV irradiation by coomassie brilliant blue staining based SDS-PAGE analysis; assay type: ADME, cell-based; conditions: mda-mb-231, 0.5 h, dose 1-10 µM
[8] = Drug localization in human MDA-MB-231 cells assessed as increase in fluorescent band intensity at 20 uM incubated for 30 mins in presence of UV irradiation by coomassie brilliant blue staining based SDS-PAGE analysis; assay type: ADME, cell-based; conditions: mda-mb-231, 0.5 h
[9] = Drug localization in human MDA-MB-231 cells assessed as increase in fluorescent band intensity at 20 uM incubated for 30 mins in absence of UV irradiation by coomassie brilliant blue staining based SDS-PAGE analysis; assay type: ADME, cell-based; conditions: mda-mb-231, 0.5 h
[10] = Drug localization in human membrane fraction of MDA-MB-231 cells assessed as increase in fluorescent band intensity at 10 uM incubated for 30 mins in presence of honokiol by coomassie brilliant blue staining based SDS-PAGE analysis; assay type: ADME, cell membranes; conditions: mda-mb-231, 0.5 h
[11] = Drug localization in human MDA-MB-231 cells assessed as increase in fluorescent band intensity at 10 uM incubated for 30 mins in presence of honokiol by coomassie brilliant blue staining based SDS-PAGE analysis; assay type: ADME, cell-based; conditions: mda-mb-231, 0.5 h
[12] = Drug localization in human membrane fraction of MDA-MB-231 cells assessed as increase in fluorescent band intensity at 10 uM incubated for 30 mins in presence of 2-O-ethylhonokiol by coomassie brilliant blue staining based SDS-PAGE analysis; assay type: ADME, cell membranes; conditions: mda-mb-231, 0.5 h
[13] = Drug localization in human MDA-MB-231 cells assessed as increase in fluorescent band intensity at 10 uM incubated for 30 mins in presence of 2-O-ethylhonokiol by coomassie brilliant blue staining based SDS-PAGE analysis; assay type: ADME, cell-based; conditions: mda-mb-231, 0.5 h
[14] = Drug localization in human SK-OV-3 cells assessed as increase in fluorescent band intensity at 10 uM incubated for 30 mins by coomassie brilliant blue staining based SDS-PAGE analysis; assay type: ADME, cell-based; conditions: sk-ov-3, 0.5 h
[15] = Drug localization in human OVCAR-3 cells assessed as increase in fluorescent band intensity at 10 uM incubated for 30 mins by coomassie brilliant blue staining based SDS-PAGE analysis; assay type: ADME, cell-based; conditions: ovcar-3, 0.5 h

Compound | IC50 (MDA-MB-231 [1]) [µM] | IC50 (SK-OV-3) [µM] | IC50 (OVCAR-3) [µM] | also measured
C=CCc1ccc(OCCCn2cc(CCCC(=O)Nc3ccc(C(=O)c4ccc(NC(=O)CCCC[C@@H]5SC[C@@H]6NC(=O)N[C@@H]65)cc4)cc3)nn2)c(-c2ccc(O)c(CC=C)c2)c1 | > 100 | > 100 | > 100 | –
C=CCc1ccc(O)c(-c2ccc(O)c(CC=C)c2)c1 [HONOKIOL] | 46 | 48 | 51 | ΔTm [2]: 1 °C; ΔTm [3]: 2.3 °C; ΔTm [4]: 1.6 °C; ΔTm (MDA-MB-231 [5]): 4.3 °C
C=CCc1ccc(OCC)c(-c2ccc(O)c(CC=C)c2)c1 | 28 | 43 | 37 | –
C#CCCC1(CCC(=O)NCCCc2ccc(OCC)c(-c3ccc(O)c(CC=C)c3)c2)N=N1 | 37 | 39 | 30 | Drug uptake [6]: Dose-dependent-effect; Drug uptake [7]: Not_active; Drug uptake [8]: Active; Drug uptake [9]: Not_active; Drug uptake [10]: Not_active; Drug uptake [11]: Not_active; Drug uptake [12]: Not_active; Drug uptake [13]: Not_active; Drug uptake [14]: Active; Drug uptake [15]: Active
C#CCCC1(CCC(=O)NCCCc2cc(-c3cc(CC=C)ccc3OCC)ccc2O)N=N1 | 39 | 44 | 50 | Drug uptake [6]: Dose-dependent-effect; Drug uptake [7]: Not_active; Drug uptake [8]: Not_active; Drug uptake [9]: Not_active; Drug uptake [10]: Not_active; Drug uptake [11]: Not_active; Drug uptake [12]: Not_active; Drug uptake [13]: Not_active
C=CCc1cc(-c2cc(Cc3cn(CCCCCC(=O)Nc4ccc(C(=O)c5ccc(NC(=O)CCCC[C@@H]6SC[C@@H]7NC(=O)N[C@@H]76)cc5)cc4)nn3)ccc2OCC)ccc1O | > 100 | > 100 | > 100 | –
C=CCc1cc(-c2cc(CCCn3cc(CCCC(=O)Nc4ccc(C(=O)c5ccc(NC(=O)CCCC[C@@H]6SC[C@@H]7NC(=O)N[C@@H]76)cc5)cc4)nn3)ccc2OCC)ccc1O | > 100 | > 100 | > 100 | –
C=CCc1ccc(OCC)c(-c2ccc(O)c(CCCn3cc(CCCC(=O)Nc4ccc(C(=O)c5ccc(NC(=O)CCCC[C@@H]6SC[C@@H]7NC(=O)N[C@@H]76)cc5)cc4)nn3)c2)c1 | > 100 | > 100 | > 100 | –
